Test system: isolated rodent islets
Experiment: Glucagon secretion by isolated rodent islets in culture at varying glucose concentrations, 1 hr PAM treatment, glucagon by ELISA
Format: cell-based
Method: In an in vitro approach, isolated rodent islets maintained in culture in 96-well plates are treated for 1 hr with PAMs. Simultaneous with addition of PAMs, islets are exposed by media exchange to glucose concentrations ranging from hypoglycemic to hyperglycemic: e.g., 2 mM, 6 mM, 12 mM, 18 mM, etc. At the end of a 1 hour PAM treatment in varying glucose concentrations, glucagon levels in each treatment condition are then measured by ELISA.

[1] = euglycemic and hyperglycemic conditions

| Structure (SMILES) | amount of glucagon released into a culture media by isolated islets [1] | amount of glucagon released into a culture media by isolated islets (hypoglycemic conditions) |
| --- | --- | --- |
| O=C1c2cccnc2OC[C@@H]2CCCN12 [ORG26576] | not | dose-dependently upregulate |
| COc1ccc(C(=O)N2CCCC2=O)cc1 [aniracetam] | not | dose-dependently upregulate |
| CC(CNS(=O)(=O)C(C)C)c1ccc(-c2ccc(C#N)cc2)cc1 (stereo not drawn) [LY404187] | not | dose-dependently upregulate |
